# From ChEMBL document CHEMBL1129215, “(Dipropylamino)-tetrahydronaphthofurans: centrally acting serotonin agonists and dopamine agonists-antagonists” (Bioorg Med Chem Lett, 1997)
# The source made the active and inactive calls. The calls are words filed in the database; no cut-off is given here.
# Columns and labels:
# [1] = tested on: Rattus norvegicus; experiment: The compound was evaluated in vivo for the DOPA accumulation at corpus striatum in non-pretreated rats at 50 umol/kg dose; type: functional
# [2] = tested on: Rattus norvegicus; experiment: The compound was evaluated in vivo for the locomotpr activity in non-pretreated rats at 50 uM/kg dose; type: functional
# [3] = biological target: T1, D(4) dopamine receptor (Homo sapiens, UniProt P21917); experiment: Tested in vitro for the inhibition of [3H]spiperone binding to Dopamine receptor D4, expressed in cloned CHO cells; type: cell-based
# T1 sequence (P21917 whole entry): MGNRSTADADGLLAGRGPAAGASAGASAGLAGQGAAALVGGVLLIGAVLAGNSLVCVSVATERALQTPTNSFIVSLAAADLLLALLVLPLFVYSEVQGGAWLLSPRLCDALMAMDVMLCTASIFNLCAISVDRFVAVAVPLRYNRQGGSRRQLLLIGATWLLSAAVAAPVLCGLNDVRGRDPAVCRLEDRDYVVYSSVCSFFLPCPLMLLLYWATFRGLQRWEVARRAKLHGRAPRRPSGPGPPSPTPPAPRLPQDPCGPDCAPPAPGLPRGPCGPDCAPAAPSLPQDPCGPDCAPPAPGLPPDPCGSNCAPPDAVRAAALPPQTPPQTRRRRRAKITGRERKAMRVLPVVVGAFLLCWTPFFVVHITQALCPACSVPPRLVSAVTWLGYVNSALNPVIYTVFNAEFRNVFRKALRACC
# [4] = tested on: Rattus norvegicus; experiment: The compound was evaluated in vivo for the DOPA accumulation at limbic regions at 50 umol/kg dose; type: functional, Limbic system
# [5] = biological target: D(3) dopamine receptor (Homo sapiens, UniProt P35462); experiment: biochemical
# D(3) dopamine receptor, sequence (P35462 whole entry): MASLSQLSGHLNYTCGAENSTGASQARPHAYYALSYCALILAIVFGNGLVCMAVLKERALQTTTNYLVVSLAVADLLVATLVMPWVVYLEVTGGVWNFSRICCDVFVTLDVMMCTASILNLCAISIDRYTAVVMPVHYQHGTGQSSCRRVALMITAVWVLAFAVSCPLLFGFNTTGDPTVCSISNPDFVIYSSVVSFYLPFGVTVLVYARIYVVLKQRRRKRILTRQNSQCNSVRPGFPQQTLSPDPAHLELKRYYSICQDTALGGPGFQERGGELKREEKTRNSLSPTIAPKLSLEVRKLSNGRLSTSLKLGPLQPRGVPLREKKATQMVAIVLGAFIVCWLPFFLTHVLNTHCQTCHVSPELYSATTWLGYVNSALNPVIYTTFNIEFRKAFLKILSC
# Description: Tested in vitro for the inhibition of [3H]U-86170 binding to Dopamine receptor D3, expressed in cloned CHO cells
# [6] = biological target: Serotonin 2 (5-HT2) receptor (Homo sapiens, UniProt P41595+P28223+P28335); experiment: Tested in vitro for the inhibition of [3H]ketanserin binding to 5-hydroxytryptamine 2 receptor, expressed in cloned CHO cells.; type: cell-based
# [7] = biological target: D(2) dopamine receptor (Rattus norvegicus, UniProt P61169); experiment: Tested in vitro for the inhibition of [3H]raclopride binding to Dopamine receptor D2 in rat striatum; type: tissue-based
# D(2) dopamine receptor, sequence (P61169 whole entry): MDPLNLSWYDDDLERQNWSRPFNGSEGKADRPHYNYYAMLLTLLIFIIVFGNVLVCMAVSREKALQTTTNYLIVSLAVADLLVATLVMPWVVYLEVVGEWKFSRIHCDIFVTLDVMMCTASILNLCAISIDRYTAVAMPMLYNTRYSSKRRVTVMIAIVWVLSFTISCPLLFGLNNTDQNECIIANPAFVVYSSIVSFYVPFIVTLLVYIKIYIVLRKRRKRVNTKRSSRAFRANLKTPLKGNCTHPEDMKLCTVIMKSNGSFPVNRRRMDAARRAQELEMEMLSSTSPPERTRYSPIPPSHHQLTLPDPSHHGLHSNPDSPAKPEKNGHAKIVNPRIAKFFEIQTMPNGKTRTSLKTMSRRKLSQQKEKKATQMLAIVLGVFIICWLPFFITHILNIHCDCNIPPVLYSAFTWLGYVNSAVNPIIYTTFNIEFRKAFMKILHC
# [8] = biological target: T2, 5-hydroxytryptamine receptor 1A (Homo sapiens, UniProt P08908); experiment: Tested in vitro for the inhibition of [3H]8-OH-DPAT binding to 5-hydroxytryptamine 1A receptor, expressed in cloned CHO cells.; type: cell-based
# T2 sequence (P08908 whole entry): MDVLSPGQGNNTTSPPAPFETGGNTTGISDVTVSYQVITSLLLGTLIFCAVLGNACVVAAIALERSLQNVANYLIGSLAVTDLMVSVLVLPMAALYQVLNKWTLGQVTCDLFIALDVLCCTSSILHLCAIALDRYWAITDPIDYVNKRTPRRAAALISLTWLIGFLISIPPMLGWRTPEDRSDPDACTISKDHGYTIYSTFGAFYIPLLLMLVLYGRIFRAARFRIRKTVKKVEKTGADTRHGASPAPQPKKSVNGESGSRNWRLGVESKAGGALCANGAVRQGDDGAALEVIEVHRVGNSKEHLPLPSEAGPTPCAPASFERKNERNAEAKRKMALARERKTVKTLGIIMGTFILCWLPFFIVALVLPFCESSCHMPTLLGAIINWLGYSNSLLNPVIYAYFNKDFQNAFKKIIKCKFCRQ
# [9] = tested on: Rattus norvegicus; experiment: The compound was evaluated in vivo for the DOPA accumulation at corpus striatum; type: functional
# [10] = tested on: Rattus norvegicus; experiment: The compound was evaluated in vivo for the 5-HTP accumulation at hemispheres in reserpine pretreated rats; type: functional
# [11] = biological target: T3, D(4) dopamine receptor (Homo sapiens) (UniProt P21917); experiment: (§1) Tested in vitro for the inhibition of [3H]spiperone binding to Dopamine receptor D4, expressed in cloned CHO cells; Inactive; type: cell-based
# T3 sequence (whole entry): T1 sequence (P21917 whole entry)
# [12] = tested on: Rattus norvegicus; experiment: The compound was evaluated in vivo for the DOPA accumulation at hemispheres in reserpine pretreated rats at 50 umol/kg; Inactive; type: functional, organism-based
# [13] = tested on: Rattus norvegicus; experiment: The compound was evaluated in vivo for the 5-HTP accumulation at limbic regions; type: functional; conditions: Limbic system
# [14] = tested on: Rattus norvegicus; experiment: The compound was evaluated in vivo for the 5-HTP accumulation at corpus striatum; type: functional
# [15] = tested on: Rattus norvegicus; experiment: The compound was evaluated in vivo for the DOPA accumulation at limbic regions; type: functional; conditions: Limbic system
# [16] = tested on: Rattus norvegicus; experiment: The compound was evaluated in vivo for the DOPA accumulation at hemispheres in reserpine pretreated rats; partial effect at highest dose of 45 umol/kg; type: functional, organism-based
# [17] = tested on: Rattus norvegicus; experiment: The compound was evaluated in vivo for the DOPA accumulation at corpus striatum; partial effect at highest dose of 45 umol/kg; type: functional, organism-based
# [18] = tested on: Rattus norvegicus; experiment: The compound was evaluated in vivo for the DOPA accumulation at limbic regions; partial effect at highest dose of 45 umol/kg; type: functional, organism-based; conditions: Limbic system
# [19] = tested on: Rattus norvegicus; experiment: The compound was evaluated in vivo for the locomotor activity in non-pretreated rats at 50 uM/kg dose; type: functional
# [20] = tested on: Rattus norvegicus; experiment: The compound was evaluated in vivo for the 5-HTP accumulation at corpus striatum at 13.5 umol/kg; inactive in highest dose tested; type: functional, organism-based
# [21] = tested on: Rattus norvegicus; experiment: The compound was evaluated in vivo for the DOPA accumulation at hemispheres in reserpine pretreated rats at 13.5 umol/kg; inactive in highest dose tested; type: functional, organism-based
# [22] = tested on: Rattus norvegicus; experiment: The compound was evaluated in vivo for the 5-HTP accumulation at limbic regions at 13.5 umol/kg; inactive in highest dose tested; type: functional, organism-based; conditions: Limbic system
# [23] = tested on: Rattus norvegicus; experiment: The compound was evaluated in vivo for the 5-HTP accumulation at hemispheres in reserpine pretreated rats at 13.5 umol/kg; inactive in highest dose tested; type: functional, organism-based
# [24] = tested on: Rattus norvegicus; experiment: The compound was evaluated in vivo for the DOPA accumulation at hemispheres in reserpine pretreated rats at 50 umol/kg; inactive in the highest dose tested; type: functional, organism-based
# [25] = tested on: Rattus norvegicus; experiment: The compound was evaluated in vivo for the DOPA accumulation at limbic regions at 50 umol/kg; Partial effects in the highest dose tested; type: functional, organism-based; conditions: Limbic system
# [26] = tested on: Rattus norvegicus; experiment: The compound was evaluated in vivo for the DOPA accumulation at corpus striatum at 50 umol/kg; Partial effects in the highest dose tested; type: functional, organism-based
# [27] = biological target: T1, D(4) dopamine receptor; experiment: as §1; type: cell-based
# [28] = tested on: Rattus norvegicus; experiment: The compound was evaluated in vivo for the 5-HTP accumulation at corpus striatum at 50 umol/kg; Inactive; type: functional, organism-based
# [29] = tested on: Rattus norvegicus; experiment: The compound was evaluated in vivo for the 5-HTP accumulation at hemispheres in reserpine pretreated rats at 50 umol/kg; Inactive; type: functional, organism-based
# [30] = tested on: Rattus norvegicus; experiment: The compound was evaluated in vivo for the 5-HTP accumulation at limbic regions at 50 umol/kg; Inactive; type: functional, organism-based; conditions: Limbic system
# [31] = tested on: Rattus norvegicus; experiment: The compound was evaluated in vivo for the 5-HTP accumulation at limbic regions at 11 umol/kg; inactive in highest dose tested; type: functional, organism-based; conditions: Limbic system
# [32] = tested on: Rattus norvegicus; experiment: The compound was evaluated in vivo for the 5-HTP accumulation at corpus striatum at 11 umol/kg; inactive in highest dose tested; type: functional, organism-based
# [33] = tested on: Rattus norvegicus; experiment: The compound was evaluated in vivo for the 5-HTP accumulation at hemispheres in reserpine pretreated rats at 11 umol/kg; inactive in highest dose tested; type: functional, organism-based
# [34] = tested on: Rattus norvegicus; experiment: The compound was evaluated in vivo for the DOPA accumulation at hemispheres in reserpine pretreated rats at 11 umol/kg; inactive in highest dose tested; type: functional, organism-based
# [35] = tested on: Rattus norvegicus; experiment: The compound was evaluated in vivo for the DOPA accumulation at corpus striatum at 12.5 umol/kg; Partial effects in the highest dose tested; type: functional, organism-based
# [36] = tested on: Rattus norvegicus; experiment: The compound was evaluated in vivo for the DOPA accumulation at hemispheres in reserpine pretreated rats at 12.5 umol/kg; Inactive; type: functional, organism-based
# [37] = tested on: Rattus norvegicus; experiment: The compound was evaluated in vivo for the DOPA accumulation at limbic regions at 12.5 umol/kg; Inactive; type: functional, organism-based; conditions: Limbic system
Compound,Ki [3] [nM],Ki [5] [nM],Ki [6] [nM],Ki [7] [nM],Ki [8] [nM],ED50 [9] [µmol/kg],ED50 [10] [µmol/kg],ED50 [13] [µmol/kg],ED50 [14] [µmol/kg],ED50 [15] [µmol/kg],further results
CCCN(CCC)[C@@H]1CCc2c(ccc3ccoc23)[C@@H]1C,55,27,70,46,120,,,,,,Saline control [1]: 161%; Saline control [2]: 107%; Saline control [4]: 121%
CCCN1CC[C@H]2c3c(O)cccc3CC[C@H]21,> 4070,> 4760,1637,769,,,,,,,
CCCN(CCC)C1CCc2ccc3occc3c2C1 (centres undefined),,45,,64,7.8,13.1,6.08,4.56,2.12,4.47,ED50 [11]: inactive; ED50 [12]: inactive
CCCN(CCC)C1CCc2cccc(O)c2C1 (centres undefined) [8-OH-DPAT],> 1520,,,,,,0.052,0.052,0.063,,Activity [16]: Weak activity; Activity [17]: Weak activity; Activity [18]: Weak activity
CCCN(CCC)[C@@H]1CCc2c(OC)cccc2[C@@H]1C,,,,15,,,,,,,Saline control [1]: 370%; Saline control [19]: 70%; Saline control [4]: 245%
CCCN(CCC)C1CCc2c(O)cccc2C1 (centres undefined) [5-OH-DPAT],,,,,344,0.009,,,,0.011,ED50 [20]: inactive; ED50 [21]: inactive; ED50 [22]: inactive; ED50 [23]: inactive
CCCN(CCC)C1CCc2ccc3ccoc3c2C1 (centres undefined),,16.2,,32,6.1,,2.26,3.24,3.18,,Activity [24]: inactive; Activity [25]: Weak activity; Activity [26]: Weak activity; Ki [27]: Not Active
CCCN(CCC)C1CCc2c(ccc3ccoc23)C1 (centres undefined),,56,,18,210,0.98,,,,0.74,ED50 [11]: inactive; ED50 [12]: inactive; ED50 [28]: inactive; ED50 [29]: inactive; ED50 [30]: inactive
CCCN(CCC)C1CCc2ccc(O)cc2C1 (centres undefined),148,,,,47,0.03,,,,0.027,ED50 [31]: inactive; ED50 [32]: inactive; ED50 [33]: inactive; ED50 [34]: inactive
CCCN1CC[C@H]2c3c(ccc4ccoc34)CC[C@H]21,> 4070,323,146,150,3.9,,0.66,0.41,0.4,,Activity [35]: Weak activity; ED50 [36]: inactive; ED50 [37]: inactive
